In patent US20090149417A1, “Methods and compositions for the treatment of cancer using benzopyrone-type PARP inhibitors” (priority 2007, published 2009):
Where “and” joins values, the source holds several entries; their conditions need not be identical. Equal values may be shown once.

Legend:
[1] = system: Colo375FG metastatic pancreatic adenocarcinoma cells; test: Live cell number (Coulter counter, methylene blue, PI exclusion); type: cell-based, human
Protocol: Colo375FG metastatic pancreatic adenocarcinoma cells are cultured in Dulbecco Modified Eagle Medium with 10% fetal bovine serum. Cells are plated at 10^5 per P100 or at 10^4 per P60 (for assays requiring up to 3 days of culture), in the presence of different concentrations of BiPar compounds and other agents, or DMSO control. Following treatment, the number of attached cells is measured using Coulter counter, and by staining with 1% methylene blue. Methylene blue is dissolved in 50%-50% mixture of Methanol and water. Cells are plated in 24- or 96-well plates and treated with compounds as indicated, then media are aspirated, cells are washed with PBS, fixed in methanol for 5-10 min, washed and the plates are allowed to dry completely. Methylene blue solution is added to wells and plates are incubated for 5 min. Staining solution is removed and plates are washed with dH2O. After plates are completely dry, a small amount of 1N HCl is added to each well to extract the methylene blue. The OD readout at 600 nm and a calibration curve are used to determine cell number.
IIIg (6-nitro-5-iodo-benzopyrone) is dissolved directly from dry powder to 10 mM stock solution in DMSO for each separate experiment, and then the entire volume of the stock solution is used to prepare working concentrations in cell culture medium to avoid any possibility of precipitation and the corresponding loss of compound. Control experiments are carried out with the matching volume/concentration of the vehicle (DMSO).
(§1) After the addition of drugs and incubation, cells are trypsinized and aliquots of the samples are taken for counting and PI (Propidium Iodide) exclusion assay. One part of the cells is centrifuged and resuspended in 0.5 ml ice-cold PBS containing 5 μg/ml of PI. The other part of the cells is fixed in ice-cold 70% ethanol and stored in a freezer overnight. For cell cycle analysis, cells are stained with propidium iodide (PI) by standard procedures. Cellular DNA content is determined by flow cytometry using BD LSRII FACS, and the percentages of cells in G1, S or G2/M are determined using ModFit software.
Colo375FG metastatic pancreatic adenocarcinoma cells are obtained from ATCC and cultured in Dulbecco Modified Eagle Medium with 10% fetal bovine serum. Cells are plated at 10^5 cells per P100 cell culture dish or at 10^4 cells per P60 cell culture dish in the presence of different concentrations compounds or DMSO control. Following treatment, the number of attached cells is measured using Coulter counter, and by staining with 1% methylene blue. Methylene blue is dissolved in 50%-50% mixture of Methanol and water. Cells are plated in 24- or 96-well plates and treated as planned, media are aspirated, cells are washed with PBS, fixed in methanol for 5-10 min, methanol is aspirated and plates are allowed to dry completely. Methylene blue solution is added to wells and plates are incubated for 5 min. Staining solution is removed and plates are washed with dH2O until washes are no longer blue. After plates are completely dry, a small amount of 1N HCl is added to each well to extract the methylene blue. The OD readout at 600 nm and a calibration curve are used to determine cell number.
Compounds of the invention are dissolved directly from dry powder to 10 mM stock solution in DMSO for each separate experiment. Control experiments are carried out with the matching volume/concentration of the vehicle (DMSO). In these controls, the cells show no changes in their growth or cell cycle distribution.
as §1, with “ug/ml” for “μg/ml”, “Cellular DNA content is determined by flow cytometry using BD LSRII FACS, and the percentages of cells in G1, S or G2/M are determined using ModFit software.” left out

[2] = system: Colo375FG metastatic pancreatic adenocarcinoma cells; test: Bromodeoxyuridine (BrdU) labeling assay (flow cytometry); type: cell-based, human
Protocol: 50 μl of BrdU (Sigma Chemical Co., St. Louis, Mo.) stock solution (1 mM) is added to give 10 μM BrdU final concentration. The cells are incubated for 30 min at 37° C. and fixed in ice-cold 70% ethanol and stored in a cold room (4° C.) overnight. Fixed cells are centrifuged and washed once in 2 ml PBS, then resuspended in 0.7 ml of denaturation solution (0.2 mg/ml pepsin in 2 N HCl) for 15 min at 37° C. in the dark and suspended with 1.04 ml 1M Tris buffer (Trizma base, Sigma Chemical Co.) to terminate the hydrolysis and washed in 2 ml PBS.
(§2) Cells are resuspended in 100-μl anti-BrdU antibody (DakoCytomation, Carpinteria, Calif.) with 1:100 dilution in TBFP permeable buffer (0.5% Tween-20, 1% bovine serum albumin and 1% fetal bovine serum in PBS) and incubated for 25 min at room temperature in the dark and washed in 2 ml PBS. The primary antibody-labeled cells are resuspended in 100 μl Alexa Fluor F(ab′)2 fragment of goat anti-mouse IgG (H+L) (2 mg/mL) (Molecular Probes, Eugene, Oreg.) with 1:200 dilution in TBFP permeable buffer and incubated for 25 min at room temperature in the dark and washed in 2 ml PBS, then resuspended in 0.5 ml ice-cold PBS containing 1 μg/ml 4′,6-diamidino-2-phenylindole (DAPI) for at least 30 min. All cell samples are analyzed with a BD LSR II (BD Biosciences, San Jose, Calif.).
as §2, with “50 μl of BrdU (Sigma Chemical Co., St. Louis, Mo.) stock solution (1 mM) is added to give 10 μM BrdU final concentration. The cells are incubated for 30 min at 37 °C and fixed in ice-cold 70% ethanol and stored in a cold room (4 °C) overnight. Fixed cells are centrifuged and washed once in 2 ml PBS, then resuspended in 0.7 ml of denaturation solution (0.2 mg/ml pepsin in 2 N HCl) for 15 min at 37° C. in the dark and suspended with 1.04 ml 1M Tris buffer (Trizma base, Sigma Chemical Co.) and washed in 2 ml PBS. Then cells” for “Cells”

[3] = Compound IIIc 0 mM, OxaliPt 10 mM
[4] = combination of IIIg and oxaliplatin
[5] = combination: IIIg 2.5 μM + OxaliPt 10 μM
[6] = combination: IIIg 2.5 μM + OxaliPt 20 μM
[7] = combination: IIIg 12.5 μM + OxaliPt 10 μM
[8] = combination: IIIg 12.5 μM + OxaliPt 20 μM
[9] = combination: IIIg 25 μM + OxaliPt 10 μM
[10] = combination: IIIg 25 μM + OxaliPt 20 μM

## O=C1[O][Pt]2([NH][C@@H]3CCCC[C@H]3[NH]2)[O]C1=O [OxaliPt, oxaliplatin, reference compound]
[1]; [3]
  Live Cell (%): 54%
[1]; Compound IIIc 0 mM, OxaliPt 20 mM
  Live Cell (%): 29%
[1]; IIIg 0 μM, OxaliPt 10 μM
  Live Cell (%): 54%
[1]; IIIg 0 μM, OxaliPt 20 μM
  Live Cell (%): 29%
[2]; [3]
  Cells in S-phase of cell cycle (% BrdU+): 81.74%
[2]; IIIg 0 μM, OxaliPt 10 μM
  S-phase % BrdU+: 81.74%
[2]; IIIg 0 μM, OxaliPt 20 μM
  S-phase % BrdU+: 63.12%

## O=c1ccc2c(I)c([N+](=O)[O-])ccc2o1 [IIIg, 5-iodo-6-nitro-benzopyrone]
[1]; IIIg 2.5 μM, OxaliPt 0 μM
  Live Cell (%): 100% and 118%
[1]; [4]
  Percentage of live cells: significantly reduces the percentage of live cells
[1]; [5]
  Live Cell (%): 62%
[1]; [6]
  Live Cell (%): 27%
[1]; [7]
  Live Cell (%): 22%
[1]; [8]
  Live Cell (%): 13%
[1]; [9]
  Live Cell (%): 11%
[1]; [10]
  Live Cell (%): 7%
[2]; IIIg 2.5 μM, OxaliPt 0 μM
  S-phase % BrdU+: 94.89%
[2]; IIIg 12.5 μM, OxaliPt 0 μM
  S-phase % BrdU+: 93.1%
[2]; IIIg 25 μM, OxaliPt 0 μM
  S-phase % BrdU+: 75.18%
[2]; [4]
  Proliferation (percentage of BrdU positive cells): inhibits the proliferation
[2]; [5]
  S-phase % BrdU+: 86.3%
[2]; [6]
  S-phase % BrdU+: 65.32%
[2]; [7]
  S-phase % BrdU+: 67.5%
[2]; [8]
  S-phase % BrdU+: 33%
[2]; [9]
  S-phase % BrdU+: 24.69%
[2]; [10]
  S-phase % BrdU+: 33.85%
